{"source": "patent US10405547B2", "about": "“Substituted cyclic amides as herbicides” (FMC Corporation, priority 2015, dated 2019)", "assay_type_in_all_cases": "in vivo", "key": {"[1]": {"system": "wheat (Triticum aestivum)", "assay": "Test A postemergence, wheat", "conditions": "0 to 100 scale (0 no effect, 100 complete control)", "method_in_brief": "(§1)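 Greenhouse test: compounds in solvent with surfactant sprayed onto loam–sand soil after planting (preemergence) or onto plants 2-10 cm at the one- to two-leaf stage (postemergence). Injury visually rated versus untreated controls after about 10 days on a 0-100 scale (100 = complete control).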"}, "[2]": {"system": "ryegrass, Italian (Lolium multiflorum)", "assay": "Test A preemergence, Italian ryegrass", "conditions": "0 to 100 scale (0 no effect, 100 complete control)", "method_in_brief": "as §1"}, "[3]": {"system": "foxtail, giant (Setaria faberii)", "assay": "Test A postemergence, giant foxtail", "conditions": "0 to 100 scale (0 no effect, 100 complete control)", "method_in_brief": "as §1"}, "rice (Oryza sativa)": {"system": "rice (Oryza sativa)", "assay": "Test B flooded paddy test, rice", "conditions": "250 g ai/ha, applied to paddy water, visual rating after 13 to 15 days, scale 0 (no effect) to 100 (complete control)", "method_in_brief": "(§2)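 Compound was added to standing water 3 cm above soil, flood maintained, and plants held in a greenhouse before visual scoring against controls at 13 to 15 days.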"}, "[4]": {"system": "pigweed (Amaranthus retroflexus)", "assay": "Test A preemergence, pigweed", "conditions": "0 to 100 scale (0 no effect, 100 complete control)", "method_in_brief": "as §1"}, "[5]": {"system": "barnyardgrass (Echinochloa crus-galli)", "assay": "Test A preemergence, barnyardgrass", "conditions": "0 to 100 scale (0 no effect, 100 complete control)", "method_in_brief": "as §1"}, "[6]": {"system": "galium (catchweed bedstraw, Galium aparine)", "assay": "Test A postemergence, galium", "conditions": "0 to 100 scale (0 no effect, 100 complete control)", "method_in_brief": "as §1"}, "kochia (Kochia scoparia) [7]": {"system": "kochia (Kochia scoparia)", "assay": "Test A postemergence, kochia", "conditions": "0 to 100 scale (0 no effect, 100 complete control)", "method_in_brief": "as §1"}, "[8]": {"system": "ryegrass, Italian (Lolium multiflorum)", "assay": "Test A postemergence, Italian ryegrass", "conditions": "0 to 100 scale (0 no effect, 100 complete control)", "method_in_brief": "as §1"}, "kochia (Kochia scoparia) [9]": {"system": "kochia (Kochia scoparia)", "assay": "Test A preemergence, kochia", "conditions": "0 to 100 scale (0 no effect, 100 complete control)", "method_in_brief": "as §1"}, "[10]": {"system": "sedge, umbrella (small-flower umbrella sedge, Cyperus difformis)", "assay": "Test B flooded paddy test, umbrella sedge", "conditions": "250 g ai/ha, applied to paddy water, visual rating after 13 to 15 days, scale 0 (no effect) to 100 (complete control)", "method_in_brief": "as §2"}, "[11]": {"system": "ducksalad (Heteranthera limosa)", "assay": "Test B flooded paddy test, ducksalad", "conditions": "250 g ai/ha, applied to paddy water, visual rating after 13 to 15 days, scale 0 (no effect) to 100 (complete control)", "method_in_brief": "as §2"}, "[12]": {"system": "blackgrass (Alopecurus myosuroides)", "assay": "Test A postemergence, blackgrass", "conditions": "0 to 100 scale (0 no effect, 100 complete control)", "method_in_brief": "as §1"}, "corn (Zea mays)": {"system": "corn (Zea mays)", "assay": "Test A postemergence, corn", "conditions": "0 to 100 scale (0 no effect, 100 complete control)", "method_in_brief": "as §1"}, "[13]": {"system": "pigweed (Amaranthus retroflexus)", "assay": "Test A postemergence, pigweed", "conditions": "0 to 100 scale (0 no effect, 100 complete control)", "method_in_brief": "as §1"}, "[14]": {"system": "ragweed (common ragweed, Ambrosia elatior)", "assay": "Test A postemergence, ragweed", "conditions": "0 to 100 scale (0 no effect, 100 complete control)", "method_in_brief": "as §1"}, "[15]": {"system": "foxtail, giant (Setaria faberii)", "assay": "Test A preemergence, giant foxtail", "conditions": "0 to 100 scale (0 no effect, 100 complete control)", "method_in_brief": "as §1"}, "[16]": {"system": "barnyardgrass (Echinochloa crus-galli)", "assay": "Test A postemergence, barnyardgrass", "conditions": "0 to 100 scale (0 no effect, 100 complete control)", "method_in_brief": "as §1"}, "[17]": {"system": "barnyardgrass (Echinochloa crus-galli)", "assay": "Test B flooded paddy test, barnyardgrass", "conditions": "250 g ai/ha, applied to paddy water, visual rating after 13 to 15 days, scale 0 (no effect) to 100 (complete control)", "method_in_brief": "as §2"}, "[18]": {"system": "ragweed (common ragweed, Ambrosia elatior)", "assay": "Test A preemergence, ragweed", "conditions": "0 to 100 scale (0 no effect, 100 complete control)", "method_in_brief": "as §1"}, "[19]": {"conditions": "125 g ai/ha, visual injury, approximately 10 days"}}, "data": [{"smiles": "CN1C[C@H](c2cccc(Oc3ccc(F)cn3)c2)[C@@H](C(=O)Nc2ccc(F)c(F)c2F)C1=O", "note": "[Compound 87, (3S,4S)-4-[3-[(5-fluoro-2-pyridinyl)oxy]phenyl]-1-methyl-2-oxo-N-(2,3,4-trifluorophenyl)-3-pyrrolidinecarboxamide]", "values": [{"measurement": "Plant response rating, Wheat", "setting": "[1]; 31 g ai/ha", "value": 0}, {"measurement": "Plant response rating, Wheat", "setting": "[1]; [19]", "value": 40}, {"measurement": "Plant response rating, Ryegrass, Italian", "setting": "[2]; 31 g ai/ha", "value": 0}, {"measurement": "Plant response rating, Ryegrass, Italian", "setting": "[2]; 125 g ai/ha", "value": 80}, {"measurement": "Plant response rating, Foxtail, Giant", "setting": "[3]; 31 g ai/ha", "value": 70}, {"measurement": "Plant response rating, Foxtail, Giant", "setting": "[3]; [19]", "value": 80}, {"measurement": "Plant response rating, Rice (Flood)", "setting": "rice (Oryza sativa)", "value": 0}, {"measurement": "Plant response rating, Pigweed", "setting": "[4]; 31 g ai/ha", "value": 70}, {"measurement": "Plant response rating, Pigweed", "setting": "[4]; 125 g ai/ha", "value": 70}, {"measurement": "Plant response rating, Barnyardgrass", "setting": "[5]; 31 g ai/ha", "value": 60}, {"measurement": "Plant response rating, Barnyardgrass", "setting": "[5]; 125 g ai/ha", "value": 90}, {"measurement": "Plant response rating, Galium", "setting": "[6]; 31 g ai/ha", "value": 30}, {"measurement": "Plant response rating, Galium", "setting": "[6]; [19]", "value": 60}, {"measurement": "Plant response rating, Kochia", "setting": "kochia (Kochia scoparia) [7]; 31 g ai/ha", "value": 0}, {"measurement": "Plant response rating, Kochia", "setting": "kochia (Kochia scoparia) [7]; [19]", "value": 30}, {"measurement": "Plant response rating, Ryegrass, Italian", "setting": "[8]; 31 g ai/ha", "value": 40}, {"measurement": "Plant response rating, Ryegrass, Italian", "setting": "[8]; [19]", "value": 70}, {"measurement": "Plant response rating, Kochia", "setting": "kochia (Kochia scoparia) [9]; 31 g ai/ha", "value": 0}, {"measurement": "Plant response rating, Kochia", "setting": "kochia (Kochia scoparia) [9]; 125 g ai/ha", "value": 60}, {"measurement": "Plant response rating, Sedge, Umbrella (Flood)", "setting": "[10]", "value": 0}, {"measurement": "Plant response rating, Ducksalad (Flood)", "setting": "[11]", "value": 85}, {"measurement": "Plant response rating, Blackgrass", "setting": "[12]; 31 g ai/ha", "value": 30}, {"measurement": "Plant response rating, Blackgrass", "setting": "[12]; [19]", "value": 60}, {"measurement": "Plant response rating, Corn", "setting": "corn (Zea mays); 31 g ai/ha", "value": 60}, {"measurement": "Plant response rating, Corn", "setting": "corn (Zea mays); [19]", "value": 90}, {"measurement": "Plant response rating, Pigweed", "setting": "[13]; 31 g ai/ha", "value": 0}, {"measurement": "Plant response rating, Pigweed", "setting": "[13]; [19]", "value": 70}, {"measurement": "Plant response rating, Ragweed", "setting": "[14]; 31 g ai/ha", "value": 0}, {"measurement": "Plant response rating, Ragweed", "setting": "[14]; [19]", "value": 0}, {"measurement": "Plant response rating, Foxtail, Giant", "setting": "[15]; 31 g ai/ha", "value": 90}, {"measurement": "Plant response rating, Foxtail, Giant", "setting": "[15]; 125 g ai/ha", "value": 90}, {"measurement": "Plant response rating, Barnyardgrass", "setting": "[16]; 31 g ai/ha", "value": 50}, {"measurement": "Plant response rating, Barnyardgrass", "setting": "[16]; [19]", "value": 80}, {"measurement": "Plant response rating, Barnyardgrass (Flood)", "setting": "[17]", "value": 60}, {"measurement": "Plant response rating, Ragweed", "setting": "[18]; 31 g ai/ha", "value": 0}, {"measurement": "Plant response rating, Ragweed", "setting": "[18]; 125 g ai/ha", "value": 0}]}]}
